Test results reported in patent US10702519B2, “Use of methoxatin, derivative and/or salt thereof in Sjogren's syndrome and pharmaceutical composition” (NANJING SHUPENG LIFESCIENCE CO., LTD, priority 2016, dated 2020).
“Also recorded” adds a separate entry of the source. Marks after values point to notes of the source that are not given here.

Assays:
[1] = system: NOD mice; assay: Saliva flow detection (pilocarpine-stimulated) in NOD mouse model of Sjogren's syndrome; type: in vivo; conditions: for salivary flow compared with the control group: P<0.05; for SFR (salivary flow): NOD mice, PQQ 1 mg/kg/day, active vitamin D 0.1 μg/kg/day; for salivary secretion function of NOD mice: summary statement
Excerpt: Model: NOD mouse model. NOD (Non-obese Diabetes) mice are a genetically deficient animal model of spontaneous diabetes. The female mice develop diabetes from 14 weeks and the incidence can reach as high as 80% by 30 weeks. NOD mice are also an animal model of Sjogren's syndrome. Mice develop inflammatory cell infiltration in the submandibular gland from 12 weeks of age, with increased expression of multiple inflammatory factors, and reduced salivary secretion and increased salivary salt concentration from 16 to 20 weeks of age.
Experimental grouping: 8-week-old female NOD mice were purchased from Shanghai SLE Experimental Animal Corporation and divided into control group, active vitamin d group, PQQ group and PQQ combined with active vitamin D group. There were four different treatment groups, 10 in each group. Saliva flow rates were measured at 12, 24, and 36 weeks of age. The amounts of PQQ and active vitamin D were 1 mg/kg body weight per day and 0.1 μg/kg body weight per day, respectively.
a. Intraperitoneal injection of 1.2% avertin (Chinese name: tribromoethanol), injection dose: 0.2 ml/10 g body weight, formula: (1) […] avertin dissolved in 0.25 ml t-amyl alcohol, shaking for 12 hours to completely dissolve; (2) Add 19.75 ml of 0.9% NaCl solution to obtain 1.2% avertin. Mice were anesthetized gently.
b. Subcutaneous pilocarpine injection in the neck, injection dose: 0.5 mg/kg=0.01 mg/20 g body weight, mother liquor concentration: 0.5 g/10 ml physiological saline=50 mg/ml=0.05×103 mg/ml, solution concentration: the mother liquor was diluted 1000 times, ie, 0.05 mg/ml, to stimulate saliva secretion.
c. Began to collect saliva after 5 minutes, that is, cotton ball with about 8 mg dry weight is made from sterile cotton ball, which is then put into a 1.5 mL EP tube to determine the dry weight. When measuring saliva secretion, the cotton ball is put into the mouse cheek and then taken into the EP tube after 10 min. The wet weight is determined on the electronic balance. Saliva secretion=wet weight of cotton balls−dry weight of cotton balls.

[2] = system: NF-κB; assay: Western Blot detection of NF-κB activation in mouse submandibular gland tissue; type: in vivo; conditions: for phosphorylation level of P65: compared with the control group
Method: Detection of NF-κB Activation in Submandibular Gland Tissue of Mouse Submandibular Gland by Western Blot
Take the same amount of total protein for each sample, add 4×SDS loading buffer according to the ratio of protein sample: 4×SDS at 3:1, mix well, boil at 95° C. for 5 min, and prepare 10% separation gel and 5% concentration gel. Perform SDS-PAGE electrophoresis, transfer the membrane, and block the PVDF membrane with 5% solution of skim milk in TBST for 1 hour at room temperature or overnight at 4° C. Dilute antibody with blocking solution, incubate at room temperature for 2 h or 4° C. overnight. Wash membrane, incubate with secondary antibody, and then wash the membrane again. After the equal volume of liquids A and B in the luminescence kit were mixed in a vessel, the mixture was uniformly added dropwise to the PVDF membrane, and the reaction was carried out in the dark for 3-5 minutes.
At the 36th week of treatment, the mouse submandibular glands were taken and Western Blot was used to detect the activation of NF-κB. […] P65 is the protein subunit of NF-κB, and its phosphorylation level directly reflects the activity of NF-κB. In addition, IκB binds to NF-κB to prevent its entry into the nucleus and exerts its activity. Once IκB is phosphorylated, it is degraded and releases NF-κB.

[3] = system: inflammatory factors in mouse submandibular glands tissue; assay: Realtime quantitative PCR of inflammatory factors in mouse submandibular gland tissue; type: in vivo; conditions: for expression of IL-1β / expression of IL-6 / expression of IL-10 / expression of TNF-α: submandibular glands tissue, 36 weeks, p<0.05
Method: Take the mouse submandibular gland tissue and extract RNA using Trizol. Superscript III was used for reverse transcription. Reaction was performed at 42° C. for 30 minutes. Oligo dT and Random Hexamer were used as primers for reverse transcription. Realtime quantitative PCR reaction system: 2×PCR premix 10 μl, Primers 0.8 μl, cDNA 1 μl, add balance of H2O to 20 μl; Reaction conditions: 95° C. 10 min, 95° C. 15 s, 60° C. 60 s, Read plate for 50 cycles; Melting curve Analysis: Temperature 55° C.-95° C., read once per minute. Set up 3 replicates for each sample.

[4] = system: MDA in submandibular gland tissue of mice; assay: Detection of MDA content in submandibular gland tissue; type: in vivo, mouse; conditions: for content of MDA compared with the control group: 36 weeks, P<0.05; for MDA (Mean ± SD): submandibular gland tissue of mice at 36 weeks of age
Method: Detection of MDA content: The submandibular gland tissue in the submandibular glands of mice were harvested and homogenized with icy physiological saline. The protein content was quantified by BCA. Take 1 ml homogenate, add 1 ml 30% trichloroacetic acid and 1 ml 0.67% TBA in turn, bath in boiling water for 30 min and cool to room temperature. After centrifugation at 3000 g for 10 min, the absorbance (A) of the supernatant was measured at 535 nm, and the MDA content was calculated from the standard curve. The result was expressed in nmol/mg tissue.

[5] = system: SOD in submandibular gland tissue of mice; assay: Detection of SOD content in submandibular gland tissue; type: in vivo, mouse; conditions: for content of SOD compared with the control group: 36 weeks; for SOD (Mean ± SD): submandibular gland tissue of mice at 36 weeks of age
Method: Detection of SOD content: The submandibular gland tissue of mice were used to prepare tissue homogenates with icy physiological saline, and the protein content was quantified by BCA method. Refer to the kit operation instructions. Take 0.2 ml of the sample and mix it with 1.3 ml of test solution. Incubate at 37° C. for 40 min. Add 2 ml of chromogenic agent. Placed at room temperature for 10 min. Determine OD at 550 nm. The results are expressed in terms of U/mg protein, which states that the corresponding SOD amount per milligram of protein in a 1 ml reaction solution with a SOD inhibition rate of 50% is an SOD activity unit.

[6] = system: mouse submandibular gland tissue; assay: Mouse submandibular gland tissue slice detection (hematoxylin-eosin), lymphocytic infiltration; type: in vivo; conditions: NOD mice, 36 weeks age, FIG. 3
Excerpt: 36 weeks age of mouse submandibular gland tissue was isolated, embedded in paraffin and sliced, stained with hematoxylin-eosin and photographed with an inverted microscope.

[7] = chemical stability of o-quinone structure; cited from earlier work
[8] = rat, cited from earlier work
[9] = submandibular glands, 36th week

| SMILES | salivary flow compared with the control group ([1]; 36th week) | SFR (salivary flow) ([1]; 12 W of age) | SFR (salivary flow) ([1]; 24 W of age) | SFR (salivary flow) ([1]; 36 W of age) | salivary flow compared with the control group ([1]; age of 24 weeks) | salivary secretion function of NOD mice [1] | phosphorylation level of P65 [2, 9] | expression of IL-1β [3] | expression of IL-6 [3] | expression of IL-10 [3] | expression of TNF-α [3] | content of MDA compared with the control group [4] | MDA (Mean ± SD) [4] [nmol/mg protein] | content of SOD compared with the control group [5] | SOD (Mean ± SD) [5] [NU/mg protein] | other results |
| --- | --- | --- | --- | --- | --- | --- | --- | --- | --- | --- | --- | --- | --- | --- | --- | --- |
| O=C(O)c1cc(C(=O)O)c2c(n1)C(=O)C(=O)c1cc(C(=O)O)[nH]c1-2 [PQQ, Pyrroloquinoline quinone] | significantly higher | 2.55 (n = 10) μl/g/10 min | 3.21 (n = 6) μl/g/10 min | 3.75* (n = 5) μl/g/10 min | no significant difference | significantly improve | significantly attenuated | significantly inhibited | significantly reduce; also recorded: significantly inhibited | significantly inhibited | significantly inhibited | significantly lower | 4.61 ± 0.76 | significantly higher | 198.21 ± 21.33 | activity of NF-kappaB signaling pathway ([2]; submandibular gland tissues of NOD mice, summary statement): significantly reduce; phosphorylation level of IκB [2, 9]: significantly attenuated; expression of Il-1 ([3]; summary and FIG. 2 legend): significantly reduce; expression of gamma interferon ([3]; summary and FIG. 2 legend): significantly reduce; oxidative stress levels in submandibular gland tissues of NOD mice ([4]; summary statement): significantly inhibit; area of lymphocyte infiltration in submandibular gland [6]: significantly inhibit; also recorded: significantly reduced; redox cycles it can participate in [7]: 20,000; adverse reactions ([8]; 100 mg/kg body weight per day for 14 consecutive days): no adverse reactions were found; LD50 [8]: 1000-2000 mg/kg body weight |
| C=C1/C(=C\C=C2/CCC[C@]3(C)[C@@H]([C@H](C)CCCC(C)(C)O)CC[C@@H]23)C[C@@H](O)C[C@@H]1O [active vitamin D, 1,25-Dihydroxyvitamin D3, reference compound] | no statistical difference | 2.74 (n = 10) μl/g/10 min | 2.82 (n = 5) μl/g/10 min | 3.22 (n = 4) μl/g/10 min | no significant difference | no effect | no significant change | did not detect the effect | did not detect the effect | did not detect the effect | did not detect the effect | no significant difference | 9.48 ± 2.12 | no significant difference | 102.45 ± 14.22 | – |
